Values quoted from earlier work in patent US20150073057A1, “COMPOSITION AND METHOD FOR TREATMENT OF DIABETES” (BioKier, Inc., priority 2013, published 2015).

Test system: overweight and obese human subjects

Substance: Oxyntomodulin: a gut hormone, 37 amino acid peptide co-secreted along with GLP-1 from L-cells
- reduction of energy intake: ~17%
